Measured values taken from publication PMC8071274 (International Journal of Molecular Sciences, 2021).
Where a SMILES comes first, the peptide text is derived from it. Where no end group is shown, it is not given here. The star is where a group is joined. For = O=C*

Tests used:
[1] = Time-dependent alteration of molecular forms of MCT-2(1–15) in mouse serum (RP-HPLC, MALDI-TOF-MS); format: in vitro ADME; settings: product formed from 500 μM MCT-2(1–15) in mouse serum, 37 °C; for time of maximum amount of the degradation product in serum: RP-HPLC, MALDI-TOF-MS
Procedure: Male C57BL/6JJcl mice, 12–14 weeks of age, weighing 25–30 g, were anesthetized (50 mg/kg pentobarbital), and blood was collected from the caudal vena cava and stored overnight at 4 °C. The blood sample was centrifuged at 4 °C and 20,000× g for 20 min, and the supernatant was transferred to a new tube as mouse serum and stored at −80 °C. MCT-2(1–15) was incubated in mouse serum at a final concentration of 500 μM at 37 °C, and aliquots (100 μL) were collected from the incubation mixture after 0, 1, 2, 4, 24, and 48 h. These aliquots were mixed with TCA (final concentration: 3% w/v) and kept on ice for 30 min to precipitate denatured proteins. The samples were centrifuged at 4 °C and 13,000× g for 15 min, and the supernatants were analyzed by RP-HPLC on a C18 column (4.6 × 150 mm, Cosmosil; Nacalai Tesque, Inc.). RP-HPLC peaks that contained MCT-2(1–15) and its derivative peptides were analyzed by MALDI-TOF-MS to identify their molecular forms.

[2] = test system: differentiated HL-60 cells; format: cell-based, human; settings: 72 h
Procedure: HEK-293 cells (American Type Culture Collection, Manassas, VA, USA) were maintained in DMEM (Thermo Fisher Scientific, Waltham, MA, USA) containing 10% FBS (Thermo Fisher Scientific) in a humidified atmosphere at 5% CO2 and 37 °C. Human acute leukemia-derived HL-60 cells (RIKEN Cell Bank, Ibaraki, Japan) were cultured in RPMI-1640 medium (Thermo Fisher Scientific) containing 10% FBS in a humidified atmosphere at 5% CO2 and 37 °C. HL-60 cells were treated with 500 μM dibutyryl-cAMP (Sigma-Aldrich, St. Louis, MO, USA) for 72 h to differentiate the cells into neutrophilic/granulocytic cells as described elsewhere. The ability of MCT-2-related peptides to activate HL-60 cells differentiated into neutrophilic/granulocytic cells was evaluated by stimulation of β-hexosaminidase secretion from the cells. Briefly, differentiated HL-60 cells were washed 3 times with ice-cold HEPES-buffered Hank’s solution (HBHS; 10 mM HEPES, 136.9 mM NaCl, 5.4 mM KCl, 1.2 mM CaCl2, 0.44 mM KH2PO4, 0.49 mM MgCl2, 0.41 mM MgSO4, 0.34 mM Na2HPO4, 5.5 mM glucose, 4.2 mM NaHCO3, and 0.1% BSA, pH 7.4). The cells were resuspended in HBHS at a density of 5.6 × 10^6 cells/mL, and DNase I (Sigma-Aldrich) and cytochalasin B (Sigma-Aldrich) were each added at a final concentration of 5 μg/mL. The cell suspension in each tube (5.0 × 10^5 cells/90 μL) was preincubated at 37 °C for 10 min and stimulated with 10 μL synthetic peptide solution at 37 °C for 10 min. The inhibitory effects of inhibitors against FPR1 [CysH (Sigma-Aldrich)] and FPR2 [PBP10 (Tocris Bioscience, Bristol, UK)] on β-hexosaminidase release induced by MCT-2 and its derivatives were also evaluated in the differentiated HL-60 cells; each cell suspension prepared as above (90 μL) was transferred to a tube (5.0 × 10^5 cells/tube) with 5 μL inhibitor solution for FPR1 (CysH) or FPR2 (PBP10). Each tube was then preincubated at 37 °C for 10 min and stimulated with 5 μL synthetic peptide solution at 37 °C for 10 min. After stimulation, 200 μL ice-cold reaction quenching buffer (25 mM Tris, 123 mM NaCl, and 2.7 mM KCl, pH 7.4) was added to each cell suspension to stop the reaction. Thereafter, these tubes were centrifuged at 4 °C and 2300× g for 1 min, and each supernatant was transferred into a new tube. β-Hexosaminidase activity in the supernatant was measured as described previously. Briefly, 90 μL supernatant was transferred to each well of a 96-well microtiter plate, and 60 μL of a substrate solution for β-hexosaminidase [10 mM p-nitrophenyl N-acetyl-β-D-glucosaminide (Sigma-Aldrich), 40 mM citrate, and 70 mM NaHPO4, pH 4.5] was added to initiate the enzyme reaction. After incubation of the plate at 37 °C for 1 h, 100 μL of 400 mM glycine (pH 10.7) was added to stop the reaction. The absorbance at 415 nm for the resulting p-nitrophenol and at 490 nm for the reference was measured using a microtiter plate reader (Viento XS; BioTek Instruments, Winooski, VT, USA). The ability of each peptide to induce β-hexosaminidase release was expressed as a percentage of enzyme secretion promoted by 10 μM MCT-2(1–15) that induced the maximum response for the elucidation of full or partial agonists to the activity of MCT-2(1–15) (Figure 2 and Figure 4, Table 2) or a percentage of the total enzyme activity, which was the enzyme activity released after disruption of the cells with 0.05% Triton X-100 (Figure 3).

Row | Compound | EC50 [2] | also measured
1 | CSCC[C@H](NC(=O)[C@@H]1CCCN1C(=O)[C@@H](NC(=O)[C@H](CCSC)NC=O)[C@@H](C)O)C(=O)O [MCT-2(1–4)] (For-MTPM-OH) | 18 µM | time of first detection of the degradation product in serum [1]: 1 h; time the degradation product was present in serum [1]: more than 48 h; presence of the degradation product in serum at 48 h ([1]; 48 h): still present; time of maximum amount of the degradation product in serum [1]: 4 h
2 | CC[C@H](C)[C@H](NC(=O)[C@H](CCCCN)NC(=O)[C@H](CCCNC(=N)N)NC(=O)[C@H](CCSC)NC(=O)[C@@H]1CCCN1C(=O)[C@@H](NC(=O)[C@H](CCSC)NC=O)[C@@H](C)O)C(=O)N[C@@H](CC(N)=O)C(=O)N1CCC[C@H]1C(=O)N[C@@H](CC(C)C)C(=O)O [MCT-2(1–10)] (For-MTPMRKINPL-OH) | 1.8 ± 0.173 µM | time of first detection of the degradation product in serum [1]: 1 h; presence of the degradation product in serum at 4 h ([1]; 4 h): not found; time of maximum amount of the degradation product in serum [1]: 2 h
3 | MTPMRKINPLMKLIN [Des-N-formyl MCT-2] | > 1000 µM | 

Further lines, with some results ahead:

Row | EC50 [2] | Compound | also measured
4 | 0.0367 ± 0.011 µM | CC[C@H](C)[C@H](NC(=O)[C@H](CC(C)C)NC(=O)[C@H](CCCCN)NC(=O)[C@H](C)NC(=O)[C@H](CC(C)C)NC(=O)[C@@H]1CCCN1C(=O)[C@H](CC(N)=O)NC(=O)[C@@H](NC(=O)[C@H](CCCCN)NC(=O)[C@H](CCCNC(=N)N)NC(=O)[C@H](CCSC)NC(=O)[C@@H]1CCCN1C(=O)[C@@H](NC(=O)[C@H](CCSC)NC=O)[C@@H](C)O)[C@@H](C)CC)C(=O)N[C@@H](CC(N)=O)C(=O)O [[Ala^11]MCT-2] (For-MTPMRKINPLAKLIN-OH) | 
5 | 0.0123 ± 0.00029 µM | CC[C@H](C)[C@H](NC(=O)[C@H](CC(C)C)NC(=O)[C@H](C)NC(=O)[C@H](CCSC)NC(=O)[C@H](CC(C)C)NC(=O)[C@@H]1CCCN1C(=O)[C@H](CC(N)=O)NC(=O)[C@@H](NC(=O)[C@H](CCCCN)NC(=O)[C@H](CCCNC(=N)N)NC(=O)[C@H](CCSC)NC(=O)[C@@H]1CCCN1C(=O)[C@@H](NC(=O)[C@H](CCSC)NC=O)[C@@H](C)O)[C@@H](C)CC)C(=O)N[C@@H](CC(N)=O)C(=O)O [[Ala^12]MCT-2] (For-MTPMRKINPLMALIN-OH) | 
6 | 0.0837 ± 0.00354 µM | CC[C@H](C)[C@H](NC(=O)[C@H](C)NC(=O)[C@H](CCCCN)NC(=O)[C@H](CCSC)NC(=O)[C@H](CC(C)C)NC(=O)[C@@H]1CCCN1C(=O)[C@H](CC(N)=O)NC(=O)[C@@H](NC(=O)[C@H](CCCCN)NC(=O)[C@H](CCCNC(=N)N)NC(=O)[C@H](CCSC)NC(=O)[C@@H]1CCCN1C(=O)[C@@H](NC(=O)[C@H](CCSC)NC=O)[C@@H](C)O)[C@@H](C)CC)C(=O)N[C@@H](CC(N)=O)C(=O)O [[Ala^13]MCT-2] (For-MTPMRKINPLMKAIN-OH) | 
7 | 0.0767 ± 0.0119 µM | CC[C@H](C)[C@H](NC(=O)[C@H](CCCCN)NC(=O)[C@H](CCCNC(=N)N)NC(=O)[C@H](CCSC)NC(=O)[C@@H]1CCCN1C(=O)[C@@H](NC(=O)[C@H](CCSC)NC=O)[C@@H](C)O)C(=O)N[C@@H](CC(N)=O)C(=O)N1CCC[C@H]1C(=O)N[C@@H](CC(C)C)C(=O)N[C@@H](CCSC)C(=O)N[C@@H](CCCCN)C(=O)N[C@@H](CC(C)C)C(=O)N[C@@H](C)C(=O)N[C@@H](CC(N)=O)C(=O)O [[Ala^14]MCT-2] (For-MTPMRKINPLMKLAN-OH) | 
8 | 0.0293 ± 0.00149 µM | CC[C@H](C)[C@H](NC(=O)[C@H](CC(C)C)NC(=O)[C@H](CCCCN)NC(=O)[C@H](CCSC)NC(=O)[C@H](CC(C)C)NC(=O)[C@@H]1CCCN1C(=O)[C@H](CC(N)=O)NC(=O)[C@@H](NC(=O)[C@H](CCCCN)NC(=O)[C@H](CCCNC(=N)N)NC(=O)[C@H](CCSC)NC(=O)[C@@H]1CCCN1C(=O)[C@@H](NC(=O)[C@H](CCSC)NC=O)[C@@H](C)O)[C@@H](C)CC)C(=O)N[C@@H](C)C(=O)O [[Ala^15]MCT-2] (For-MTPMRKINPLMKLIA-OH) | 
